Test results published in article PMC6274214, “Antimicrobial Activity and Urease Inhibition of Schiff Bases Derived from Isoniazid and Fluorinated Benzaldehydes and of Their Copper(II) Complexes” (Molecules, 2016).

biological target: T1, jack bean urease (Canavalia ensiformis, UniProt P07374); assay: phenol red pH-rise urease assay, […] nm, time from pH […] to […]; type: biochemical
T1 construct: native jack bean urease
T1 sequence (P07374 whole entry): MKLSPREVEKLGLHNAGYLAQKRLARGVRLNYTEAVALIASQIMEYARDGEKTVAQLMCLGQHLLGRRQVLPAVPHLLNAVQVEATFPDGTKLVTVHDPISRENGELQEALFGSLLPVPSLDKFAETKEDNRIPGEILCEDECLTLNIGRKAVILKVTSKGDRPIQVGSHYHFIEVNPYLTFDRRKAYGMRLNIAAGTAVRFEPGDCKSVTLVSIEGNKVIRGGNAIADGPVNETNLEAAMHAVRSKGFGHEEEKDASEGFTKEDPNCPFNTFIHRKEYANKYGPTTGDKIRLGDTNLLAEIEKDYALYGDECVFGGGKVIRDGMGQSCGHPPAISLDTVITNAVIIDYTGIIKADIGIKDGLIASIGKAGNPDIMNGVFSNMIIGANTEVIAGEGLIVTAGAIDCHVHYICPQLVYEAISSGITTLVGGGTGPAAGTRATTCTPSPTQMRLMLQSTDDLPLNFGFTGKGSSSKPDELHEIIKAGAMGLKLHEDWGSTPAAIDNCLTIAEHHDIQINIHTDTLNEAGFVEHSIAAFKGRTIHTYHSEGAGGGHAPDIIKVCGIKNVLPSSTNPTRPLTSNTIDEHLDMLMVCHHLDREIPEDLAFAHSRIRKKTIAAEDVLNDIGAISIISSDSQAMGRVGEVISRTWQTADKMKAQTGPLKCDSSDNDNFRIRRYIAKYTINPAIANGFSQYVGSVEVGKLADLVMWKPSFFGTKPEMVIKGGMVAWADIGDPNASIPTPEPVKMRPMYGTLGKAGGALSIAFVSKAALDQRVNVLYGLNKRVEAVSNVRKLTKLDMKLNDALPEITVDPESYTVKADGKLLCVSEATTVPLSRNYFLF

`O=C(NN=Cc1ccc(C(F)(F)F)cc1)c1ccncc1` [L1] and `O=C(NN=Cc1ccc(F)cc1)c1ccncc1` [L3, N-[(4-fluorophenyl)methylidene]pyridine-4-carbohydrazide monohydrate] cannot be ordered by IC50: over 500 µM for the first, over 500 µM for the second.

`O=C(NN=Cc1cccc(F)c1O)c1ccncc1` [L5, N-[(3-fluoro-2-hydroxyphenyl)methylidene]pyridine-4-carbohydrazide] and `O=C(NN=Cc1cc(F)ccc1O)c1ccncc1` [L4, N-[(5-fluoro-2-hydroxyphenyl)methylidene]pyridine-4-carbohydrazide] cannot be ordered by IC50: over 500 µM for the first, over 500 µM for the second.

`O=C(NN=Cc1ccccc1C(F)(F)F)c1ccncc1` [L2, N-[[(2-trifluoromethyl)phenyl]methylidene]pyridine-4-carbohydrazide] and `O=C(NN=Cc1ccccc1)c1ccncc1` [L6, N-(benzylidene)pyridine-4-carbohydrazide] cannot be ordered by IC50: over 500 µM for the first, over 500 µM for the second.

`CC(=O)NO` [Acetohydroxamic acid, reference compound] gave an IC50 of 185 ± 6.2 µM.
